Data as given in US20110269837A1, “PHOSPHORUS BINDER COMPOSITION FOR TREATMENT OF HYPERPHOSPHATEMIA” (BIOLINK LIFE SCIENCES, INC., priority 2010, published 2011).
Where a name gives a salt, the structure may show the parent alone. Read-outs that look alike come from different tables or passages of the source.

Experiments:
[1] = for Pi binding (FIG. 1): 24 hours; for Observed in vitro Pi Binding, %: inventor's experiments, mean of triplicate determinations
Protocol: The pH of each solution was adjusted to the desired value by the addition of concentrated hydrochloric acid or sodium hydroxide, as appropriate.
An HPLC method with conductivity detection was developed and validated for use in the determination of succinate, acetate and phosphate. The separation was performed on a Dionex AS11 […] HPLC column integrated with an Agilent Series 1100 HPLC system, and detection of the anionic species was enabled using a Dionex ED50 Electrochemical Detector, operating in Conductivity Mode. Limits of Detection and Quantitation were enhanced through the use of a Dionex Anion Self-Regenerating Suppressor. After assay-specific development and verification of assay performance were completed, the analysis of phosphate and succinate or acetate was performed by sampling the test solution and diluting it, if necessary, to a concentration within the linear range of the Assay. The sample was then injected onto the HPLC column and eluted with a sodium hydroxide gradient. Data were acquired using Agilent ChemStation® software.
Experimental Methods: Experiments were completed in triplicate in which 2.77 g of Na2HPO4.7 H2O (equivalent to 320 mg of elemental phosphorus) was dissolved in 570 mL of deionized water. The test or control binder was dissolved in deionized water to a volume of 30 mL. The binder solution was added to the phosphorus solution to give a final volume of 600 mL. For each binder study, the phosphorus solutions were titrated by addition of dilute HCl or dilute NaOH to five different initial pH levels: 4, 5, 6, 7, and 8. (These solution pH's span the pH range of the gastrointestinal tract.) Then the beakers containing the solutions were covered with plastic wrap and placed on a stir plate that agitated the solution at ˜20 cycles per minute overnight. This stirring rate has been selected because in vitro antacid activity at such low stirring rates has been reported to correlate well with in vivo antacid activity in the stomach. Samples for ion chromatographic assay of solution phosphate (Pi) were taken at 24 hours post-mixing (the maximum time available for phosphorus binding that has been reported in related in vivo studies). The decrease in phosphorus concentration from the original concentration in the phosphorus solution to that of the filtrate represents the bound phosphorus.

[2] = Sheikh et al. 1989, cited from earlier work
[3] = healthy human subjects, anticipated
Text: Net calcium absorption will be measured by a validated method, such as the one described in detail by Bo-Linn, G. W. et al., Journal of Clinical Investigation, 73: 640-647 (1984). The procedure that will be followed is described below.
On each day, subjects will be prepared by a mannitol-electrolyte gastrointestinal lavage, in order to cleanse the gastrointestinal tract. […] Then each subject will eat a test meal of 80 g ground sirloin steak, 100 g French fried potatoes, 30 g Swiss cheese and 250 mL water containing 10 g of polyethylene glycol (PEG3500) as a non-absorbable marker. After the meal, each subject will consume 25 mEq of calcium, in the same form as will have been consumed prior to the meal, or additional placebo, with 100 mL of water. Duplicate meals will be prepared (one for consumption and one to be analyzed for calcium and phosphorus). The duplicate meals will be analyzed for calcium and phosphorus and are expected to contain about 350 mg of phosphorus and about 215 mg of calcium. […]
Ten hours after a meal, a second lavage will be begun, using the procedure described above. […] All urine voided during the 10-hour period will be collected and analyzed for phosphorus and calcium. Rectal effluent will be collected, pooled with any stool passed during the 10-hour period and analyzed for phosphorus and calcium. Absorption will be calculated according to the following equation: […]

**Q.** For `CC(=O)[O-].CC(=O)[O-].[Ca+2]` [Calcium Acetate, calcium acetate], which “Pi binding (FIG. 1)” value ([1]; pH 4) is on record?
**A.** The value was 100%.

**Q.** And the “Observed in vitro Pi Binding, %” value ([1]; pH 4.0)?
**A.** Its value is 58.6%.

**Q.** And the “Pi binding (FIG. 1)” value ([1]; pH 5)?
**A.** The value was 92%.

**Q.** And the “Pi binding (FIG. 1)” value ([1]; pH 6)?
**A.** Its value is 100%.

**Q.** What about the “Observed in vitro Pi Binding, %” value ([1]; pH 6.0) of the same molecule?
**A.** The value was 93.8%.

**Q.** What about the “Pi binding (FIG. 1)” value ([1]; pH 7) of the same molecule?
**A.** Its value is 100%.

**Q.** And the “Pi binding (FIG. 1)” value ([1]; pH 8)?
**A.** Its value is 100%.

**Q.** With `O=C([O-])[O-].[Ca+2]` [Calcium Carbonate, calcium carbonate] as the molecule, how does the “Observed in vitro Pi Binding, %” value ([2]; pH 6.0) read?
**A.** Its value is 90%.

**Q.** Which results are given for `O=C([O-])CC(O)(CC(=O)[O-])C(=O)[O-].O=C([O-])CC(O)(CC(=O)[O-])C(=O)[O-].[Ca+2].[Ca+2].[Ca+2]` [Calcium Citrate, calcium citrate]?
**A.** Observed in vitro Pi Binding, % ([2]; pH 6.0): 10%; Observed in vitro Pi Binding, % ([2]; pH 6.5): 20% at pH 6.5 (NOTE 2)

**Q.** For `CC(O)C(=O)[O-].CC(O)C(=O)[O-].[Ca+2]` (centres unmarked) [Calcium Lactate, calcium lactate], which “Observed in vitro Pi Binding, %” value ([2]; pH 6.0) is on record?
**A.** The value was 90%.

**Q.** For `O=C(O)CCC(=O)O` [Calcium Succinate, butanedioic acid calcium salt], which “dietary phosphorus absorbed from the GI tract” value ([3]; ingested close in time to test meal) is on record?
**A.** The value was “about 20%”.

**Q.** And the “change in the percentage of dietary calcium absorbed from the GI tract” value ([3]; versus placebo day)?
**A.** The value was “less than 10%”.

**Q.** What about the “Pi binding compared with calcium acetate (FIG. 1)” value ([1]; each pH value in the range from pH 4 to 8) of the same molecule?
**A.** Its value is “matches or exceeds”.

**Q.** And the “Observed in vitro Pi Binding, %” value ([1]; pH 4.0)?
**A.** The value was 59.4%.

**Q.** What about the “Observed in vitro Pi Binding, %” value ([1]; pH 6.0) of the same molecule?
**A.** The value was 94.0%.

**Q.** With calcium gluconate as the molecule, how does the “Observed in vitro Pi Binding, %” value ([2]; pH 6.0) read?
**A.** Its value is 90%.
